Activity calls are given as the source filed them. The calls are words filed in the database; no cut-off is given here.
Columns and labels:
A549 [1] = assay: Induction of apoptosis in human A549 cells assessed as upregulation of caspase-8 expression after 48 hrs by Western blot analysis; assay type: functional, cell-based
A549 [2] = assay: Cell cycle arrest in human A549 cells assessed as accumulation at G2/M phase at 10 uM by propidium iodide staining based flow cytometric analysis (reference value: 12.77 +/- 1.55%); assay type: functional
A549 [3] = assay: Disruption of mitochondrial membrane potential in human A549 cells assessed as ratio of green to red fluorescence intensity at 20 uM after 12 hrs by JC-1 staining based flow cytometric analysis; assay type: functional
A549 [4] = assay: Effect on total Rb level in human A549 cells after 48 hrs by Western blot analysis; assay type: ADME, cell-based; settings: a549, 48 h
A549 [5] = assay: Induction of apoptosis in human A549 cells assessed as late apoptotic cells at 5 uM after 6 hrs by Annexin-V-FITC/Propidium iodide staining based flow cytometric analysis (reference value: 0.41 +/- 0.19%); assay type: functional
A549 [6] = assay: Induction of apoptosis in human A549 cells assessed as viable cells at 20 uM after 48 hrs by Annexin-V/Propidium iodide dual staining based flow cytometric analysis (reference value: 92.46 +/- 4.23%); assay type: functional; settings: A549, 48 h, read-out: Activity
A549 [7] = assay: Induction of apoptosis in human A549 cells assessed as necrotic cells at 5 uM after 6 hrs by Annexin-V-FITC/Propidium iodide staining based flow cytometric analysis (reference value: 0.28 +/- 0.09%); assay type: functional
A549 [8] = assay: Induction of apoptosis in human A549 cells assessed as upregulation of caspase-3 expression after 48 hrs by Western blot analysis; assay type: functional, cell-based
A549 [9] = assay: Induction of apoptosis in human A549 cells assessed as late apoptotic cells at 20 uM after 48 hrs by Annexin-V/Propidium iodide dual staining based flow cytometric analysis (reference value: 1.44 +/- 0.43%); assay type: functional
A549 [10] = assay: Induction of apoptosis in human A549 cells assessed as late apoptotic cells at 10 uM after 48 hrs by Annexin-V/Propidium iodide dual staining based flow cytometric analysis (reference value: 1.44 +/- 0.43%); assay type: functional
A549 [11] = assay: Disruption of mitochondrial membrane potential in human A549 cells at 10 uM by JC-1 staining based laser scanning confocal microscopic analysis; assay type: functional, cell-based
A549 [12] = assay: Induction of cell cycle arrest in human A549 cells assessed as downregulation of p-Rb(Ser780) expression after 48 hrs by Western blot analysis; assay type: functional, cell-based
A549 [13] = assay: Cell cycle arrest in human A549 cells assessed as accumulation at G2/M phase at 5 uM by propidium iodide staining based flow cytometric analysis (reference value: 12.77 +/- 1.55%); assay type: functional
A549 [14] = assay: Disruption of mitochondrial membrane potential in human A549 cells assessed as ratio of green to red fluorescence intensity at 20 uM after 24 hrs by JC-1 staining based flow cytometric analysis; assay type: functional
A549 [15] = assay: Induction of apoptosis in human A549 cells assessed as necrotic cells at 10 uM after 48 hrs by Annexin-V/Propidium iodide dual staining based flow cytometric analysis (reference value: 2.57 +/- 0.39%); assay type: functional
A549 [16] = assay: Induction of apoptosis in human A549 cells assessed as early apoptotic cells at 20 uM after 48 hrs by Annexin-V/Propidium iodide dual staining based flow cytometric analysis (reference value: 3.53 +/- 0.89%); assay type: functional
A549 [17] = assay: Induction of apoptosis in human A549 cells assessed as viable cells at 10 uM after 48 hrs by Annexin-V-FITC/Propidium iodide staining based flow cytometric analysis (reference value: 92.46 +/- 4.23%); assay type: functional; settings: A549, 48 h, read-out: Activity
A549 [18] = assay: Cell cycle arrest in human A549 cells assessed as accumulation at G0/G1 phase at 10 uM by propidium iodide staining based flow cytometric analysis (reference value: 63.82 +/- 2.66%); assay type: functional
A549 [19] = assay: Induction of apoptosis in human A549 cells assessed as late apoptotic cells at 5 uM after 48 hrs by Annexin-V/Propidium iodide dual staining based flow cytometric analysis (reference value: 1.44 +/- 0.43%); assay type: functional
A549 [20] = assay: Cell cycle arrest in human A549 cells assessed as accumulation at S phase at 5 uM by propidium iodide staining based flow cytometric analysis (reference value: 23.41 +/- 2.19%); assay type: functional
A549 [21] = assay: Induction of apoptosis in human A549 cells assessed as early apoptotic cells at 10 uM after 48 hrs by Annexin-V/Propidium iodide dual staining based flow cytometric analysis (reference value: 3.53 +/- 0.89%); assay type: functional
A549 [22] = assay: Induction of apoptosis in human A549 cells assessed as late apoptotic cells at 10 uM after 6 hrs by Annexin-V-FITC/Propidium iodide staining based flow cytometric analysis (reference value: 0.41 +/- 0.19%); assay type: functional
A549 [23] = assay: Induction of apoptosis in human A549 cells assessed as upregulation of Bax expression after 48 hrs by Western blot analysis; assay type: functional, cell-based
[24] = biological target: RAF proto-oncogene serine/threonine-protein kinase (Homo sapiens) (UniProt P04049); assay: Inhibition of C-Raf in human A549 cells after 48 hrs by Western blot analysis; assay type: cell-based
A549 [25] = assay: Induction of apoptosis in human A549 cells assessed as necrotic cells at 10 uM after 6 hrs by Annexin-V-FITC/Propidium iodide staining based flow cytometric analysis (reference value: 0.28 +/- 0.09%); assay type: functional
A549 [26] = assay: Induction of apoptosis in human A549 cells assessed as viable cells at 5 uM after 6 hrs by Annexin-V-FITC/Propidium iodide staining based flow cytometric analysis (reference value: 95.48 +/- 2.03%); assay type: functional; settings: A549, 6 h, read-out: Activity
A549 [27] = assay: Cell cycle arrest in human A549 cells assessed as accumulation at G0/G1 phase at 20 uM by propidium iodide staining based flow cytometric analysis (reference value: 63.82 +/- 2.66%); assay type: functional
A549 [28] = assay: Induction of apoptosis in human A549 cells assessed as early apoptotic cells at 5 uM after 6 hrs by Annexin-V-FITC/Propidium iodide staining based flow cytometric analysis (reference value: 3.83 +/- 0.49%); assay type: functional
A549 [29] = assay: Induction of apoptosis in human A549 cells assessed as viable cells at 5 uM after 48 hrs by Annexin-V-FITC/Propidium iodide staining based flow cytometric analysis (reference value: 92.46 +/- 4.23%); assay type: functional; settings: A549, 48 h, read-out: Activity
A549 [30] = assay: Induction of apoptosis in human A549 cells assessed as early apoptotic cells at 5 uM after 48 hrs by Annexin-V/Propidium iodide dual staining based flow cytometric analysis (reference value: 3.53 +/- 0.89%); assay type: functional
[31] = biological target: RAF proto-oncogene serine/threonine-protein kinase (Homo sapiens) (UniProt P04049); assay: Inhibition of c-Raf in human A549 cells assessed as downregulation of phosphorylated ERK1/2 expression after 48 hrs by Western blot analysis; assay type: cell-based
A549 [32] = assay: Selectivity index, ratio of IC50 for human BEAS2B cells to IC50 for human A549 cells; assay type: functional
[33] = Cytotoxicity against human BEAS2B cells by MTT assay; assay type: cell-based; settings: BEAS-2B
[34] = Antiproliferative activity against human MGC803 cells by MTT assay; assay type: functional, cell-based; settings: MGC-803
A549 [35] = assay: Induction of apoptosis in human A549 cells assessed as necrotic cells at 5 uM after 48 hrs by Annexin-V/Propidium iodide dual staining based flow cytometric analysis (reference value: 2.57 +/- 0.39%); assay type: functional

Chain of RAF proto-oncogene serine/threonine-protein kinase (Homo sapiens) (P04049 whole entry): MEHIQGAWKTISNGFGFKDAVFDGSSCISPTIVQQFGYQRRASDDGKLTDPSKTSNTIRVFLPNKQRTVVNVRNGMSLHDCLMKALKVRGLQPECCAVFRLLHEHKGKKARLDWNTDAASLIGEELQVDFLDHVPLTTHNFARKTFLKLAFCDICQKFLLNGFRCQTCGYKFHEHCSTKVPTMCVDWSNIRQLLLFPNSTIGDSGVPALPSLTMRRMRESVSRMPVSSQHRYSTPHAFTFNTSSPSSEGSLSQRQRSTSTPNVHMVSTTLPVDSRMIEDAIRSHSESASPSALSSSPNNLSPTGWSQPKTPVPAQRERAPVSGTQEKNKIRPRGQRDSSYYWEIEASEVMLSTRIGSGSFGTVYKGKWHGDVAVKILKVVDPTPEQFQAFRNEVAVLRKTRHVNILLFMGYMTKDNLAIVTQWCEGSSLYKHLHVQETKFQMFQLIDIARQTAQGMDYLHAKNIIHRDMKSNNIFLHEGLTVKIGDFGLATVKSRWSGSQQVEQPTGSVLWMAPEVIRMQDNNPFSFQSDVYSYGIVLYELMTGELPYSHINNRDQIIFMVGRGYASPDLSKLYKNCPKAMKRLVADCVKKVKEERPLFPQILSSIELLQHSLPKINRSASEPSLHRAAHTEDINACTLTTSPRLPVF

COc1cc2ncnc(NCc3cccc(NC(=O)Nc4ccc(C(C)(C)C)cc4)c3)c2cc1OC
Activity (A549 [1]): Dose-dependent effect | Activity (A549 [2]): 7.65% | Ratio (A549 [3]): 75 | Activity (A549 [4]): Non-toxic | Activity (A549 [5]): 5.97% | viability at 20 µM (A549 [6]): 51.6% | Activity (A549 [7]): 0.44% | Activity (A549 [8]): Dose-dependent effect | Activity (A549 [9]): 5.65% | Activity (A549 [10]): 7.83% | Activity (A549 [11]): Active | Activity (A549 [12]): Dose-dependent effect | Activity (A549 [13]): 13.43% | Ratio (A549 [14]): 125 | Activity (A549 [15]): 22.9% | Activity (A549 [16]): 0.57% | viability at 10 µM (A549 [17]): 67.5% | Activity (A549 [18]): 85.44% | Activity (A549 [19]): 7.84% | Activity (A549 [20]): 20.28% | Activity (A549 [21]): 1.83% | Activity (A549 [22]): 5.4% | Activity (A549 [23]): Dose-dependent effect | inhibition [24]: Dose-dependent effect | Activity (A549 [25]): 0.56% | viability at 5 µM (A549 [26]): 89.4% | Activity (A549 [27]): 95.33% | Activity (A549 [28]): 4.21% | viability at 5 µM (A549 [29]): 75.4% | Activity (A549 [30]): 2.54% | inhibition [31]: Dose-dependent effect | Ratio IC50 (A549 [32]): >5 | IC50 [33]: 26.5 µM | IC50 [34]: 6.79 µM | Activity (A549 [35]): 14.2%
